Experimental data published in patent US20040039062A1, “Urea, ruminally synthesizable mainly to microbial crude protein” (Agri-Nutrients Technology Group, Inc., priority 2002, published 2004).

Legend:
[1] = Water solubility test of coated urea (5 gram sample in 200 grams distilled water at 39° C., urea dissolved after 10 hours); format: physicochemical
Protocol: The mixture was swirled briefly only when the sample was added and at the end of 10 hours. The percent of the urea dissolved in 10 hours was measured to be 45 by weight.

Fresh rumen fluid = test: In-vitro urea conversion test: ruminal synthesis of urea to microbial crude protein (MCP) in rumen fluid; design: species or system heifer
Protocol: A series of urea conversion in-vitro tests were arranged using the following materials: (1) Fresh rumen fluid withdrawn via a pump through a strainer from a heifer receiving no feed for the prior two days. (2) Simulated Saliva composition of E. I. McGougal in Biochemical Journal, Vol. 43, page 106. (3) Cellulose energy source, Whatman Chromedia Microgranular Cellulose, free from other nutrient compounds. […] The in-vitro tests were run with each sample in a 250 ml Erlenmeyer flask receiving the ingredients listed as follows: [table] The test flasks were placed in a constant temperature bath operating at 39° C. Carbon dioxide was used to displace the air in the flasks. Samples amounting to 10 grams were withdrawn on an accurate time schedule with the air in the sample container replaced by carbon dioxide. The samples were immediately treated with 1 percent mercuric chloride to terminate microbial activity in the samples. The samples were analyzed for total nitrogen, ammonia nitrogen, and […] by difference.

urea water solubilities at 39° C. (in words) [1]: high
Structure (SMILES): NC(N)=O [Test No. 6, urea]
synthesis efficiencies to MCP (in words) (Fresh rumen fluid; after 8 hours): low
Urea Synthesized to MCP (Fresh rumen fluid; rumen fluid, 8 hours): 3.6%
